Assays:
Format in all cases: cell-based
Conditions in all cases: 24 h incubation, visual reading
[1] = system: Staphylococcus aureus MRSA ATCC 43300; assay: MIC assay, S. aureus MRSA ATCC 43300
Experimental: (§1) Antimicrobial activity of compounds was tested against a number of bacterial strains, including Staphylococcus aureus (MRSA ATCC 43300, GISA NRS17, VISA NRS1, MRSA clinical isolate, daptomycin resistant clinical isolate), Streptococcus pneumoniae (MDR ATCC 700677), Enterococcus faecalis (VanA clinical isolate) and Enterococcus faecium (MDR Van A ATCC 51559).
(§2) All compounds were prepared to 160 μg/ml solution in water from a stock solution of 1 mM concentration.
(§3) The compounds, along with standard antibiotics were serially diluted twofold across the wells of 96-well non-binding surface plates (NBS, Corning). Standards ranged from 64 μg/ml to 0.03 μg/ml and compounds from 8 μg/ml to 0.003 μg/ml with final volumes of 50 μL per well. Gram positive bacteria were cultured in Muller Hinton broth (MHB) (Bacto laboratories, Cat. no. 211443) at 37° C. overnight. A sample of each culture was then diluted 40-fold in fresh MHB broth and incubated at 37° C. for 2-3 hrs. The resultant mid-log phase cultures were diluted to the final concentration of 5×10e5 CFU/mL, then 50 μL was added to each well of the compound-containing 96-well plates. All the plates were covered and incubated at 37° C. for 24 h. MICs were the lowest concentration showing no visible growth.
(§4) MICs were determined visually at 24 hr incubation and the MIC was defined as the lowest concentration with which no growth was visible after incubation. Both MIC and MBC were determined by visual inspection only.

[2] = system: Streptococcus pneumoniae MDR ATCC 700677; assay: MIC assay, S. pneumoniae MDR ATCC 700677
Experimental: as §1, §2, §3, §4

[3] = system: Enterococcus faecium MDR Van A ATCC 51559; assay: MIC assay, E. faecium MDR Van A ATCC 51559
Experimental: as §1, §2, §3, §4

SMILES | Minimum Inhibitory Concentration (MIC) Staph. aureus ATCC43300 [1] | Minimum Inhibitory Concentration (MIC) S. pneumoniae ATCC 700677 [2] | Minimum Inhibitory Concentration (MIC) E. faecium ATCC51559 [3]
CCCCCCCCC(=O)N[C@@H](CCCCN(C)C)C(=O)N[C@@H](CCCCNC(=O)[C@H]1NC(=O)[C@H]2NC(=O)[C@H](NC(=O)[C@@H]3NC(=O)[C@H](CC(N)=O)NC(=O)[C@H](NC(=O)[C@@H](CC(C)C)NC)[C@H](O)c4ccc(c(Cl)c4)Oc4cc3cc(c4O[C@@H]3O[C@H](CO)[C@@H](O)[C@H](O)[C@H]3O[C@H]3C[C@](C)(N)[C@H](O)[C@H](C)O3)Oc3ccc(cc3Cl)[C@H]2O)c2ccc(O)c(c2)-c2c(O)cc(O)cc21)C(=O)O [MCC_007386] | xx (xx = 1-4) | xx (xx = 1-4) | x (x = >4)
CNC(=O)C(CCCCNC(=O)C1NC(=O)C2NC(=O)C(NC(=O)C3NC(=O)C(CC(N)=O)NC(=O)C(NC(=O)C(CC(C)C)NC)C(O)c4ccc(c(Cl)c4)Oc4cc3cc(c4OC3OC(CO)C(O)C(O)C3OC3CC(C)(N)C(O)C(C)O3)Oc3ccc(cc3Cl)C2O)c2ccc(O)c(c2)-c2c(O)cc(O)cc21)NC(=O)C(CCCCN)NC(=O)C(CCCCN)NC(=O)c1ccc(OCc2ccccc2)cc1 (centres unmarked) [MCC_000518] | xxx (xxx = 0.1-<1) | xxx (xxx = 0.1-<1) | x (x = >4)
CCCCCCCN1CCC(C(=O)N[C@@H](CCCCN)C(=O)N[C@@H](CCCCN)C(=O)N[C@@H](CCCCNC(=O)[C@H]2NC(=O)[C@H]3NC(=O)[C@H](NC(=O)[C@@H]4NC(=O)[C@H](CC(N)=O)NC(=O)[C@H](NC(=O)[C@@H](CC(C)C)NC)[C@H](O)c5ccc(c(Cl)c5)Oc5cc4cc(c5O[C@@H]4O[C@H](CO)[C@@H](O)[C@H](O)[C@H]4O[C@H]4C[C@](C)(N)[C@H](O)[C@H](C)O4)Oc4ccc(cc4Cl)[C@H]3O)c3ccc(O)c(c3)-c3c(O)cc(O)cc32)C(N)=O)CC1 [MCC_004820] | xxxx (xxxx = 0.01-<0.1) | xxx (xxx = 0.1-<1) | x (x = >4)
CN[C@H](CC(C)C)C(=O)N[C@H]1C(=O)N[C@@H](CC(N)=O)C(=O)N[C@H]2C(=O)N[C@H]3C(=O)N[C@H](C(=O)N[C@H](C(=O)NCCCC[C@H](NC(=O)[C@H](CCCCN)NC(=O)[C@H](CCCCN)NC(=O)c4ccc(Cl)cc4)C(=O)O)c4cc(O)cc(O)c4-c4cc3ccc4O)[C@H](O)c3ccc(c(Cl)c3)Oc3cc2cc(c3O[C@@H]2O[C@H](CO)[C@@H](O)[C@H](O)[C@H]2O[C@H]2C[C@](C)(N)[C@H](O)[C@H](C)O2)Oc2ccc(cc2Cl)[C@H]1O [MCC_005505] | xx (xx = 1-4) | xx (xx = 1-4) | x (x = >4)
CCCCCCCC(=O)N[C@@H](CCCCN)C(=O)N[C@@H](CCCCN)C(=O)NCCCNC(=O)[C@H]1NC(=O)[C@H]2NC(=O)[C@H](NC(=O)[C@@H]3NC(=O)[C@H](CC(N)=O)NC(=O)[C@H](NC(=O)[C@@H](CC(C)C)NC)[C@H](O)c4ccc(c(Cl)c4)Oc4cc3cc(c4O[C@@H]3O[C@H](CO)[C@@H](O)[C@H](O)[C@H]3O[C@H]3C[C@](C)(N)[C@H](O)[C@H](C)O3)Oc3ccc(cc3Cl)[C@H]2O)c2ccc(O)c(c2)-c2c(O)cc(O)cc21 [MCC_005196] | xxx (xxx = 0.1-<1) | xxx (xxx = 0.1-<1) | xx (xx = 1-4)
CCCCCCCCCCCCCC(=O)NCC(=O)N[C@@H](CO)C(=O)N[C@@H](CCCCN)C(=O)N[C@@H](CCCCN)C(=O)N[C@@H](CCCCN)C(=O)N[C@@H](CCCCNC(=O)[C@H]1NC(=O)[C@H]2NC(=O)[C@H](NC(=O)[C@@H]3NC(=O)[C@H](CC(N)=O)NC(=O)[C@H](NC(=O)[C@@H](CC(C)C)NC)[C@H](O)c4ccc(c(Cl)c4)Oc4cc3cc(c4O[C@@H]3O[C@H](CO)[C@@H](O)[C@H](O)[C@H]3O[C@H]3C[C@](C)(N)[C@H](O)[C@H](C)O3)Oc3ccc(cc3Cl)[C@H]2O)c2ccc(O)c(c2)-c2c(O)cc(O)cc21)C(=O)O [MCC_000380] | xxxx (xxxx = 0.01-<0.1) | xxxxx (xxxxx = <0.01) | –
